According to ChEMBL document CHEMBL3137667, “[Drug-induced liver injury; fourteenth updated edition of the bibliographic database of liver injuries and related drugs]” (Gastroenterol Clin Biol, 2004):

Columns and labels:
[1] = human, serum, 4383 h
[2] = human
[3] = Highest frequency of acute liver toxicity observed during clinical trials, expressed as a percentage. [column '% AIGUE' in source]; details: human
[4] = Highest frequency of moderate liver toxicity observed during clinical trials, expressed as a percentage. [column '% BIOL' in source]; details: human
[5] = human; remark: listed apart in the source
[6] = human; remark: listed apart in the source
[7] = human; remark: listed apart in the source
[8] = human, serum
[9] = human; remark: listed apart in the source
[10] = human, serum; remark: listed apart in the source
[11] = Times to onset, minimal and maximal, observed in the indexed observations. [column 'DELAI' in source]; details: human
[12] = Presence of at least one case with successful reintroduction. [column 'REINT' in source]; details: human
[13] = human; remark: listed apart in the source
[14] = human; remark: listed apart in the source
[15] = human; remark: listed apart in the source
[16] = human; remark: listed apart in the source
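Wherever Hepatotoxicity (association with vascular disease) is given: count of indexed literature references reporting vascular liver injury in humans, e.g. peliosis hepatitis, hepatic veno-occlusive disease or Budd-Chiari syndrome.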
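Wherever Hepatotoxicity (benign tumour) is given: value is a count of indexed literature references citing a benign tumour confirmed by histopathology.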
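Wherever Hepatotoxicity (choleostasis) is given: human cholestatic liver injury, shown by histopathology or by peak ALT or AST elevation over alkaline phosphatase ratio below 2, value counts indexed literature reports.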
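Wherever Hepatotoxicity (chronic liver disease) is given: chronic liver injury confirmed by histopathology or persistently raised serum aminotransferase activity beyond 6 months, value given as the count of indexed literature references.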
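Wherever Hepatotoxicity (cirrhosis) is given: value is a count of indexed literature references reporting cirrhosis confirmed by histopathology.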
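Wherever Hepatotoxicity (cytolytic) is given: human cytolytic liver injury, shown by histopathology or by a ratio above 5 of peak ALT or AST elevation to alkaline phosphatase elevation, value counts indexed references.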
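Wherever Hepatotoxicity (granulomatous hepatitis) is given: value is a count of indexed literature references reporting granulomatous liver disease confirmed by histopathology.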
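Wherever Hepatotoxicity (malignant tumour) is given: malignant tumour confirmed by histopathology, value gives the count of indexed literature references reporting it.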
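Wherever Hepatotoxicity (severe hepatitis) is given: human clinical data: severe hepatitis, meaning potentially life-threatening liver failure or clinically observed cases, the value counts how many indexed literature references report it.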
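Wherever Hepatotoxicity (steatosis) is given: steatosis confirmed by histopathology, value is the count of indexed references.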

SMILES | Hepatotoxicity (chronic liver disease) [1] | Hepatotoxicity (association with vascular disease) [2] | Hepatotoxicity (acute) [3] [%] | Hepatotoxicity (moderate) [4] [%] | Hepatotoxicity (benign tumour) [5] | Hepatotoxicity (granulomatous hepatitis) [6] | Hepatotoxicity (severe hepatitis) [7] | Hepatotoxicity (moderate) [8] | Hepatotoxicity (malignant tumour) [9] | Hepatotoxicity (acute) [10] | Hepatotoxicity (time to onset) [11] | Hepatotoxicity (successful reintroduction) [12] | Hepatotoxicity (choleostasis) [13] | Hepatotoxicity (cirrhosis) [14] | Hepatotoxicity (cytolytic) [15] | Hepatotoxicity (steatosis) [16] | also measured
CC[C@]1(O)CC[C@H]2[C@@H]3CCC4=CC(=O)CC[C@@H]4[C@H]3CC[C@@]21C [NORETHANDROLONE] | 0 | 3 | 0 | 24 | 2 | 0 | 2 | 3 | 1 | 11 | 2 weeks - 4.5 years | yes | 6 | 0 | 0 | 0 | –
Cc1nccn1CC1CCc2c(c3ccccc3n2C)C1=O (stereo not drawn) [ONDANSETRON] | 0 | 0 | 0 | 33 | 0 | 0 | 0 | 23 | 0 | 1 | 8 days - 9 days | yes | 0 | 0 | 0 | 0 | –
C[C@]12C/C(=C/O)C(=O)C[C@@H]1CC[C@@H]1[C@@H]2CC[C@@]2(C)[C@H]1CC[C@]2(C)O [OXYMETHOLONE] | 0 | 12 | 52.8 | 50 | 11 | 0 | 2 | 2 | 14 | 10 | 11 days - 15 years | yes | 3 | 0 | 1 | 0 | –
C1CNCCN1 [PIPERAZINE] | 0 | 0 | – | – | 0 | – | – | 0 | 0 | 2 | 3 weeks - 1 month | yes | – | 0 | – | 0 | Hepatotoxicity (acute) ([3]; Liver): 0%; Hepatotoxicity (moderate) ([4]; Liver): 0%; Hepatotoxicity (granulomatous hepatitis) ([6]; Liver): 0; Hepatotoxicity (severe hepatitis) ([7]; Liver): 0; Hepatotoxicity (choleostasis) ([13]; Liver): 2; Hepatotoxicity (cytolytic) ([15]; Liver): 1
CCCN(CCC)S(=O)(=O)c1ccc(C(=O)O)cc1 [PROBENECID] | 0 | 0 | 0 | 0 | 0 | 1 | 1 | 0 | 0 | 1 | 2 years | yes | 0 | 0 | 1 | 0 | –
CC(NCCc1ccc(O)cc1)C(O)c1ccc(O)cc1 (stereo not drawn) [RITODRINE] | 0 | 0 | 0.9 | 40 | 0 | 0 | 0 | 6 | 0 | 6 | 4 days - 9 weeks | yes | 1 | 0 | 6 | 0 | –
O=C1NS(=O)(=O)c2ccccc21 [SACCHARIN] | 0 | 0 | – | – | 0 | – | – | 0 | 0 | 1 | 2 weeks - 2 months | yes | – | 0 | – | 0 | Hepatotoxicity (acute) ([3]; Liver): 0%; Hepatotoxicity (moderate) ([4]; Liver): 0%; Hepatotoxicity (granulomatous hepatitis) ([6]; Liver): 0; Hepatotoxicity (severe hepatitis) ([7]; Liver): 0; Hepatotoxicity (choleostasis) ([13]; Liver): 0; Hepatotoxicity (cytolytic) ([15]; Liver): 1
CC(=O)S[C@@H]1CC2=CC(=O)CC[C@]2(C)[C@H]2CC[C@@]3(C)[C@@H](CC[C@@]34CCC(=O)O4)[C@H]12 [SPIRONOLACTONE] | 0 | 0 | 0 | 0 | 0 | 0 | 0 | 0 | 0 | 3 | 6 weeks - 2 months | yes | 3 | 0 | 3 | 0 | –
